Assay results published in patent publication US20230105701A1, “DISSOLUTION-ENHANCED OLAPARIB COMPOSITION” (SHANGHAI INSTITUTE OF MATERIA MEDICA, CHINESE ACADEMY OF …, priority 2020, published 2023).

What was measured:
[1] = Solubility test (supersaturated solubility by HPLC); type: physicochemical; details: pH 4.0 citric acid/disodium hydrogen phosphate buffer, aqueous buffer, thermodynamic from solid, pH 4.0 citrate buffer, 37° C., shaker 100 rpm, equivalent to 10 mg olaparib in 5 ml, average of 2 runs
Experimental: The dissolution-enhanced olaparib compositions prepared in Preparation Examples 1-3 and Comparative Examples 1-8 and the olaparib API (free base) were taken in an amount equivalent to 10 mg of olaparib, dispersed in 5 ml of a pH 4.0 buffer (citric acid: 21 g/L: disodium hydrogen phosphate 71.63 g/L=61.45:38.55) as the solvent and shaken in a shaker at 100 rpm for 2 h at 37° C., and sampled. The samples were centrifugal filtered and measured by HPLC to determine the supersaturated solubility. The average value was obtained from 2 parallel runs.
The operation conditions of the HPLC were:
Apparatus: A liquid chromatograph with a UV detector;
Chromatographic Waters Sunfire C18, 4.6 mm*50 mm
Eluent: A: 0.1% TFA in water; B: 0.1% TFA in acetonitrile;

[2] = within the physiological pH range; cited from earlier work
[3] = cited from earlier work

In the case of `O=C(c1cc(Cc2n[nH]c(=O)c3ccccc23)ccc1F)N1CCN(C(=O)C2CC2)CC1` [Olaparib API, 1-(cyclopropanoyl)-4-[5-[(3,4-dihydro-4-oxo-1-phthalazinyl)methyl]-2-fluorobenzoyl]piperazine], the solubility at 2 h [1] is given as 118 µg/mL, the solubility [2] is given as “less than 0.2 mg/ml” and the permeability [3] is given as “medium”.
